The text below walks through data of patent US4243678A, “Acylhydrocarbylaminoalkanoic acids, compositions and uses” (Byk Gulden Lomberg Chemische Fabrik GmbH, priority 1977, dated 1981).

Data set [1] relates to liver damage by CCl4. The data set can be described thus: Antihepatotoxic effect: duration of hexobarbital sleep of the rat after liver damage by CCl4. The conditions noted are these: Rattus norvegicus, po; for ED25: read-out: ED25 antihepatotoxic effect (shortens hexobarbital narcosis by 25%). The protocol:
(§1) The compounds to be tested are administered 1 hour prior to the administration of CCl4 orally in a liquid volume of 10 ml/kg.
(§2) The antihepatotoxic effect of the compounds to be tested (sodium salts in aqueous solution) is determined by the reduction of the prolongation of sleeping period caused by the CCl4 liver cell damage in the groups treated, as compared with the prolongation of the sleeping period of the CCl4 control group (=100%). […]

Assay in data set [2]: as above
The note with it: rat, in vivo. The protocol: as §1, §2

Data set [3] concerns bile secretion. Kind of data set: Influence on bile secretion (choleresis) of the narcotized rat. The class given is in vivo, rat (male Sprague-Dawley). The note with it: 0.5 h, liquid volume, 30 min fraction, read-out: ED50 bile secretion (dose which brings about an increase in the bile secretion by a maximum of 50%). The source says:
(§3) Male Sprague-Dawley rats (body weight from 250 to 300 g) are narcotized with 1.2 g/kg urethane i.m. Then the abdominal cavity is opened medially, the bile duct is ligatured shortly above the place where it leads into the duodenum and also near to the hepatic duct, and both sections are catheterized towards the liver.
(§4) As in the rat all the pancreatic ducts lead out into the central section of the bile duct; it is possible in this way to discharge the pancreatic secretion separately from the distal (ligatured) section and the bile separately from the proximal section of the bile duct.
(§5) The quantities of pancreatic juice and bile juice obtained are measured at intervals of 30 minutes over a period from 2 hours before to 3 hours after the intraduodenal (V. jugularis externa) administration of the compounds to be tested (quantity of liquid administered 5 ml/kg).
(§6) The body temperature of the animals is maintained at 36° to 38° C. by means of electric blankets and radiation; the temperature is monitored rectally.
(§7) The liquid volumes of the 30-minute fractions after the administration of the substance are related in each case to the quantity of bile or pancreatic juice secreted prior to the application of the substance (=100%, mean of the last two measurements). The maximum percentage increase in the pancreatic or bile secretion is represented in dependence upon dose, and from this the ED50 is determined by interpolation.

Assay in data set [4]: as above
The class given is in vivo, rat (male Sprague-Dawley). The conditions noted are these: in vivo, LD50 mouse i.p. / ED50 rat i.d., read-out: TQ (LD50/ED50), bile secretion.
Source text: as §3, §4, §5, §6, §7

Data set [5] is described as follows: Determination of toxicity (lethal action on the mouse after intraperitoneal application). The class given is in vivo. The note with it: in vivo, ip. The protocol:
(§8) The toxicity investigations are carried out on female NMRI mice (body weight 22 to 26 g). The animals (5 animals per dose) are given food and water ad lib. Different doses of the substances are administered intraperitoneally. The duration of observation is 14 days. The LD50, i.e. the dose at which 50% of the animals die, is determined graphically from the dose/effect curve.

Data set [6] is described as follows: Influence on pancreatic secretion of the narcotized rat. The class given is in vivo, rat (male Sprague-Dawley). The conditions noted are these: in vivo, LD50 mouse i.p. / ED50 rat i.d.
The subject of data set [7] is pancreatic secretion. The description is as above. The class given is in vivo, rat (male Sprague-Dawley). The note with it: 0.5 h.
Data set [8] concerns mouse. Kind of data set: Determination of toxicity (lethal action on the mouse after intraperitoneal application). The class given is in vivo. The conditions noted are these: 20160 min. The protocol:
as §8

Data set [9] can be described thus: Antiulcerogenic (stomach-protective) action, pylorus ligature and acetylsalicylic acid. The class given is in vivo, rat (female). The conditions noted are these: in vivo; LD50 mouse i.p. / ED50 rat i.d.; Table IV; read-out: TQ (LD50/ED50), antiulcerogenic action. Here is the method: (§9) The ulcer provocation is carried out on rats which have been made to fast for 24 hours (female, 180 to 200 g) by ligature of the pylorus (under ether narcosis) and the oral application of 100 mg/10 ml/kg acetylsalicylic acid. The administration of the substances was carried out intraduodenally (2.5 ml/kg) immediately after the ligature of the pylorus. The closure of the wound was carried out by means of Michel clamps. 4 hours after this, the animals were autopsied (while inebriated with ether) by dislocation of the atlas, and the stomach was resected. The stomach, opened longitudinally, is fixed on a cork board and, using a stereomicroscope with an enlargement of 10×, the number and size (=diameter) of any ulcers present were determined. The product of the degree of severity (according to the following scale of points) and the number of ulcers was used as the individual ulcer index.
(§10) As a measure of antiulcerogenic effect the reduction in the mean ulcer index of each treated group, as compared with that of the control group (=100%), was used.

In data set [10] the test system is stomach ulcer. The data set is described as above. The class given is in vivo, rat (female). The note with it: 4 h; rat, intraduodenally; Table IV; read-out: ED50 antiulcerogenic action (dose which reduces the mean ulcer index by 50%). The protocol:
as §9, §10

The subject of data set [11] is glucose formation from lactate and pyruvate in isolated perfused liver. Kind of data set: Inhibition of the formation of glucose from lactate and pyruvate in the isolated perfused rat liver. Further details: species or system rat (male Sprague-Dawley). The note with it: Table XIII. Summed up:
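Livers of male Sprague-Dawley rats (160 to 200 g), fasted 20 to 22 h, were perfused via the portal vein with Krebs-Henseleit bicarbonate buffer pH 7.4 containing 1.6 mmol/liter L-lactate and 0.2 mmol/liter pyruvate. Compounds were infused in rising concentrations (0.02 to 1.00 mmol/liter), 16 min each; effluent glucose was measured enzymatically and expressed relative to lactate/pyruvate-driven change (100%).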

Setting [12] is: read-out: ED50 antihepatotoxic effect (dose which shortens the hexobarbital narcosis by 50%).
The mark [13] stands for this setting: TQ (LD50/ED50), antihepatotoxic effect, LD50 mouse i.p. / ED50 rat p.o., Table III.
The mark [14] stands for this setting: Table I, read-out: TQ (LD50/ED50), pancreatic secretion.
Setting [15] is: Rattus norvegicus, read-out: ED50 pancreatic secretion (dose which brings about an increase in the pancreatic secretion by a maximum of 50%).
The mark [16] stands for this setting: read-out: ED50 antihepatotoxic effect (shortens hexobarbital narcosis by 50%).
The mark [17] stands for this setting: TQ LD50/ED25, antihepatotoxic effect, LD50 mouse i.p. / ED25 rat p.o., Table V.
Where [18] appears, read: TQ LD50/ED50, antihepatotoxic effect, LD50 mouse i.p. / ED50 rat p.o., Table V.
The mark [19] stands for this setting: Table VII, read-out: TQ [LD50/ED50], pancreatic secretion.
Where [20] appears, read: narcotized rat, i.d., liquid volume, 30 min fraction, Table VII, read-out: ED50 pancreatic secretion (dose which brings about an increase in pancreatic secretion of a maximum of 50%).

Molecules are shown by their SMILES. Like-named read-outs stand apart in the source and are kept apart here. Some results are limits rather than exact numbers.

For orientation: ED50 means the dose that gives a 50% effect, or the effect in half of the subjects. Usually LD50 stands for the dose at which mortality reaches 50%. Low values mean a more toxic substance, high ones a less toxic substance. Regarding `CC(c1ccccc1)N(CCCC(=O)O)C(=O)c1ccc(Cl)cc1` (racemic) [Serial No. 10, N-(p-chloro)benzoyl-4-(1-phenylethylamino)butyric acid], the ED50 was ~10 mg/kg in data set [1] (setting [12]); ~15 mg/kg in data set [3] (narcotized rat, i.d., Table II); ~20 mg/kg in data set [7] (setting [15]). Further, the selectivity ratio is ~120 in [2] (setting [13]), ~80 in [4] (Table II) and ~60 in data set [6] (setting [14]). In data set [5] (mouse, Table I), this compound returned a 50% lethal dose (LD50) at 336 h of 1200 mg/kg.

In the case of `C#CC(C)(C)N(CCCC(=O)O)C(=O)c1ccc(Cl)cc1` [Serial No. 3, N-(p-chloro)benzoyl-4-[(2-methyl-3-butyn-2-yl)amino]butyric acid], the median effective dose (ED50) came to 100 mg/kg in [1] (setting [12]) and 25 mg/kg in data set [3] (narcotized rat, i.d., Table II). In addition, the selectivity ratio in data set [2] (setting [13]) was > 10; in [4] (Table II), > 40. In [5] (mouse, Table II), the 50% lethal dose (LD50) at 336 h is > 1000 mg/kg. Moreover, the LD50 in data set [8] (mouse, i.p., Table III) is > 1000 mg/kg.

As to `COc1ccc(CCN(CCCC(=O)O)C(=O)c2ccc(Cl)cc2)cc1OC` [Serial No. 9, N-(p-chloro)benzoyl-4-homoveratrylaminobutyric acid], the ED50 in [1] (setting [12]) is 100 mg/kg; in data set [3] (narcotized rat, i.d., Table II), 18 mg/kg; in data set [7] (setting [15]), 5 mg/kg. The values for the selectivity ratio in [2] (setting [13]), in [4] (Table II) and in [6] (setting [14]) were 7.8, 43 and 156, respectively. The compound also displayed a median lethal dose (LD50) at 336 h in [5] (mouse, Table I) of 780 mg/kg.

In the case of `CC(=O)N(CCCC(=O)O)C(c1ccccc1)c1ccccc1` [Serial No. 14, N-acetyl-4-benzhydrylaminobutyric acid], the 50% effective dose (ED50) in data set [1] (setting [12]) is 10 mg/kg; in data set [3] (narcotized rat, i.d., Table II), 5 mg/kg; in data set [7] (setting [15]) it was ~5 mg/kg. Further, the selectivity ratio in data set [2] (setting [13]) is 110; in data set [4] (Table II) it was 220; in data set [6] (setting [14]), ~220. Also, the LD50 at 336 h in data set [5] (mouse, Table I) worked out at 1100 mg/kg.

Regarding `O=C(O)CCCN(C(=O)c1ccc(Cl)cc1)C(Cc1ccccc1)c1ccccc1` (centres unmarked) [Serial No. 17, N-(p-chloro)benzoyl-4-[(1,2-diphenylethyl)amino]butyric acid], the median effective dose (ED50) was 10 mg/kg in [1] (setting [12]); 5 mg/kg in data set [3] (narcotized rat, i.d., Table II); ~1 mg/kg in [7] (setting [15]). Also, the selectivity ratio is 16 in [2] (setting [13]), 32 in data set [4] (Table II) and ~160 in data set [6] (setting [14]). In addition, the median lethal dose (LD50) at 336 h in data set [5] (mouse, Table I) came out at 160 mg/kg.

For `CC(=O)N(CCCC(=O)O)c1ccccc1-c1ccccc1` [Serial No. 22, 4-[N-(biphenyl-2-yl)acetamido]butyric acid], the ED25 in [1] was < 3 mg/kg. Further, the 50% effective dose (ED50) in [1] (setting [16]) was 15 mg/kg; in data set [3] (narcotized rat i.d., Table VI) it was 8 mg/kg; in data set [10], 55 mg/kg; in data set [7] (setting [20]) it was ~2 mg/kg. Moreover, the selectivity ratio is > 250 in [2] (setting [17]); 50 in [2] (setting [18]); 93.8 in data set [4] (Table VI); 13.6 in data set [9]; ~375 in [6] (setting [19]). For the same compound, the 50% lethal dose (LD50) at 336 h in data set [5] (mouse, Table IV) worked out at 750 mg/kg.

On to `CC=CC(=O)N(CCCC(=O)O)c1ccccc1-c1ccccc1` [Serial No. 27, 4-[N-(biphenyl-2-yl)crotonoylamido]butyric acid], for which, in data set [1], the ED25 was determined as 1.6 mg/kg. The ED50 in data set [1] (setting [16]) is 2.8 mg/kg; in [3] (narcotized rat i.d., Table VI), 10 mg/kg; in data set [10], ~55 mg/kg. The selectivity ratio in data set [2] (setting [17]) is 188; in data set [2] (setting [18]), 107; in data set [4] (Table VI), 30; in data set [9], ~5.5. In addition, in data set [5] (mouse, Table IV), the LD50 at 336 h was 300 mg/kg.

In the case of `COc1ccc(Cl)cc1C(=O)N(CCCCCC(=O)O)c1ccccc1-c1ccccc1` [Serial No. 30, 6-[5-chloro-2-methoxy-N-(biphenyl-2-yl)benzamido]caproic acid], the ED25 in [1] worked out at 10 mg/kg. Also, the selectivity ratio in data set [2] (setting [17]) is > 20; in [9], > 20; in data set [6] (setting [19]) it was > 200. The median effective dose (ED50) was 10 mg/kg in data set [10] and < 1 mg/kg in data set [7] (setting [20]). The 50% lethal dose (LD50) at 336 h in data set [5] (mouse, Table IV) is > 200 mg/kg. In addition, the LD50 is recorded as > 200 mg/kg in data set [8] (mouse i.p., Table V) and > 200 mg/kg in data set [8] (mouse i.p., Table VII).

Turning to `COc1ccc(Cl)cc1C(=O)N(CCCC(=O)O)c1ccc(OC)c(-c2ccccc2)c1` [Serial No. 36, 4-[2-methoxy-5-chloro-N-(6-methoxybiphenyl-3-yl)benzamido]butyric acid], the ED50 in [3] (narcotized rat i.d., Table VI) amounted to 1 mg/kg; in data set [7] (setting [20]), 5 mg/kg. For the same compound, the results for the selectivity ratio in data set [4] (Table VI) and in [6] (setting [19]) were 190 and 38, respectively. In addition, the LD50 at 336 h in data set [5] (mouse i.p., Table VI) was determined as 190 mg/kg.

`CC(C)C(=O)N(CCCC(=O)O)C1CCCc2ccccc21` (centres unmarked) [Serial No. 50, 4-[N-(1,2,3,4-tetrahydro-1-naphthyl)isobutyramido]butyric acid]: in [11] (0.2 mmol/liter in the perfusate, isolated perfused liver of fasting rats), the “Glucose formation, % change” value is -33%. Also, the “ED50 inhibition of formation of glucose from lactate and pyruvate” value in [11] (from 4 concentrations, 0.02 to 1.00 mmol/liter) is 97 µg/mL. Further, the LD50 at 336 h in data set [5] (mouse i.p., Table X) was > 200 mg/kg. Further, the “LD50 (i.p.)” value in data set [8] (mouse, i.p., Table XIII) is on record as > 200 mg/kg. In addition, the selectivity ratio in [6] (Table X, read-out: TQ LD50/ED50, pancreatic secretion) was ≥ 66.7. For the same compound, the 50% effective dose (ED50) in data set [7] (narcotized rat, i.d., liquid volume, 30 minute fraction, Table X, read-out: ED50 pancreatic secretion (dose which brings about an increase in pancreatic secretion by a maximum of 50%)) was ~3 mg/kg.
